Assay results reported in publication PMC10229426, “An optimized bioluminescent substrate for non-invasive imaging in the brain” (Nature Chemical Biology, 2023).
Values joined by “and” are separate entries in the source; they are usually repeats but may differ in a detail not shown here. Equal values may be shown once. “Also recorded” adds a separate entry of the source.

Tests used:
AkaLuc = test: Bioluminescence imaging of transgenic mice expressing AkaLuc in the brain; assay type: in vivo, mouse; conditions: 3.0- or 1.3-µmol doses
Text: (§1) Transgenic reporter mice with LSL-CAG-luciferase (Antares, FLuc or AkaLuc) inserted at the H11 locus (H11P) were generated by φC31-mediated recombination in blastocysts[48] by the Stanford Transgenic, Knockout and Tumor Model Center. For substrate comparisons, 2- to 4-month-old transgenic mice doubly hemizygous for a Camk2a-cre (Jackson Laboratory, 005359), Vgat-IRES-cre (Jackson Laboratory), Vglut2-IRES-cre (Jackson Laboratory, 016963) or Alb-cre (Jackson Laboratory, 003574) driver and a CAG-LSL-Antares, CAG-LSL-AkaLuc or CAG-LSL-FLuc reporter were anesthetized by inhalation of isoflurane for 5 min. An electric shaver was used to remove scalp hair in Camk2a-cre, Vglut2-IRES-cre or Vgat-IRES-cre mice or abdominal hair in Alb-cre mice. Nair depilatory cream (Church and Dwight) was then applied to the shaved area for 1 min, and remaining hair was removed with a piece of sterile gauze. […]
(§2) For mice expressing Antares, indicated amounts of Fz were dissolved in 480 µl of a PEG-300-based formulation consisting of 10% glycerol, 10% ethanol, 10% hydroxypropylcyclodextrin and 35% PEG-300 in water, or indicated amounts of lyophilized Fz analogs with P-407 vehicle were reconstituted in 150–500 µl of DPBS buffer. […] Integrated luminescence was quantified using the Fiji version of the ImageJ program (NIH)[49], with further statistical analysis performed in GraphPad Prism (version 9.0.0).

[1] = probably due to acidity of the solution; cited from earlier work
Antares luciferase [2] = target: T1, Antares luciferase (Oplophorus gracilirostris, UniProt Q9GV45, A31E/A60N/A81I/F95D/I117V/K70R/L54V/L99Q/M102K/N193R/P142E/Q151K/Q38R/Q45L/V71I/Y165I); test: Non-invasive detection of Antares in the liver (Alb-cre driver); assay type: in vivo, mouse; conditions: 1.3 µmol i.p.
T1 construct: expressed in transfected cells; host or cells: transgenic mice with CAG-LSL-Antares at the H11 locus, crossed to Cre driver lines (neurons or liver)
T1 sequence (Q9GV45 other isoform, or with tags, fused parts or gaps with the stated changes): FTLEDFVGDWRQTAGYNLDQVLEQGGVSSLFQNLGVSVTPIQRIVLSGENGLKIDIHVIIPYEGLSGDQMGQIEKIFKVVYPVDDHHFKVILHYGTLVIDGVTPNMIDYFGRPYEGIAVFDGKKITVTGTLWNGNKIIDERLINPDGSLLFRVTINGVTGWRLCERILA
Text: as §1, §2

Antares luciferase [3] = target: T1, Antares luciferase; test: Bioluminescence imaging of transgenic mice for substrate comparison (brain, Cre-driven Antares); assay type: in vivo, mouse
Text: Transgenic reporter mice with LSL-CAG-luciferase (Antares, FLuc or AkaLuc) inserted at the H11 locus (H11P) were generated by φC31-mediated recombination in blastocysts[48] by the Stanford Transgenic, Knockout and Tumor Model Center. For substrate comparisons, 2- to 4-month-old transgenic mice doubly hemizygous for a Camk2a-cre (Jackson Laboratory, 005359), Vgat-IRES-cre (Jackson Laboratory), Vglut2-IRES-cre (Jackson Laboratory, 016963) or Alb-cre (Jackson Laboratory, 003574) driver and a CAG-LSL-Antares, CAG-LSL-AkaLuc or CAG-LSL-FLuc reporter were anesthetized by inhalation of isoflurane for 5 min. An electric shaver was used to remove scalp hair in Camk2a-cre, Vglut2-IRES-cre or Vgat-IRES-cre mice or abdominal hair in Alb-cre mice. Nair depilatory cream (Church and Dwight) was then applied to the shaved area for 1 min, and remaining hair was removed with a piece of sterile gauze. The area was then rinsed with DPBS and cleaned with 70% ethanol with a piece of sterile gauze.
For mice expressing Antares, indicated amounts of Fz were dissolved in 480 µl of a PEG-300-based formulation consisting of 10% glycerol, 10% ethanol, 10% hydroxypropylcyclodextrin and 35% PEG-300 in water, or indicated amounts of lyophilized Fz analogs with P-407 vehicle were reconstituted in 150–500 µl of DPBS buffer. For mice expressing FLuc, indicated amounts of D-luciferin were dissolved in PBS. For mice expressing AkaLuc, 3 μmol (1.0 mg) of AkaLumine-HCl (Sigma-Aldrich) was dissolved in 150 μl of 0.9% NaCl. Substrates were then injected into the peritoneal cavity in the left lower quadrant, with the maximum injectable volume at 480 µl. Immediately after substrate injection, bioluminescent images were acquired in an Ami HT bioluminescence imaging system running Aura software version 3.1 or 4.0 (Spectral Instruments Imaging) for 15–30 min at intervals of 1 min. For comparing substrates at 1.3 µmol, the following imager settings were used: emission filter open, field of view of 25 cm, f-stop of 1.2, binning of 2 × 2 and exposure time of 2 s. For comparison with >1.3-µmol substrates, the following settings were used: emission filter open, field of view of 25 cm, f-stop of 1.2, binning of 1 × 1 and exposure time of 1 s. Pseudocolor images and intensity scale bars were generated with Aura software. Integrated luminescence was quantified using the Fiji version of the ImageJ program (NIH)[49], with further statistical analysis performed in GraphPad Prism (version 9.0.0).

[4] = Solubility in aqueous formulation with poloxamer-407 (P-407); assay type: physicochemical
Procedure: Stock samples of solid formulated Fz analogs were prepared using the following protocol. First, P-407 (Pluronic F127) was placed into a screw-cap glass vial. The polymer was then heated to 75 °C in a water bath until melted. Fz analogs dissolved in ethanol were added to the hot polymer, mixing well with a thin spatula. Additional rinses of Fz analogs in ethanol were added to the hot polymer for quantitative transfer. The solvent was then removed under vacuum. This concentrated sample was diluted with water to make a dispensing mixture of 4–9 mM Fz analogs in water. Next, this aqueous stock was aliquoted into glass vials, frozen and lyophilized overnight to give a yellow cake. For i.p. injection into mice, DPBS (Corning, 21-031-CV) was added to the vial and rocked to create a clear solution.

[5] = Toxicity in mice: necropsy and histopathology; assay type: in vivo, C57BL/6 mice; parameters: key: 0: absent; 1: minimal; 2: mild; 3: moderate; 4: severe; conditions: 1 day, 4.2 µmol, 20 mg P-407; individual mice
Procedure: (§3) Male C57BL/6 mice of 2 months of age were killed by CO2 asphyxiation and cardiac exsanguination. All mice were weighed, and a complete gross examination of the external and internal organs was performed. […] Formalin-fixed tissues were processed routinely, embedded in paraffin, sectioned at 5 μm and stained with hematoxylin and eosin. All slides were blindly evaluated for histologic treatment-related effects (Supplementary Table 1) by a board-certified veterinary pathologist.

[6] = Toxicity in mice: necropsy and histopathology; assay type: in vivo, C57BL/6 mice; parameters: key to BMH, brain multifocal hemorrhage score / HN, hepatocellular necrosis score / RTD, renal tubular dilation score / RTDR, renal tubular degeneration and regeneration score: 0: absent; 1: minimal; 2: mild; 3: moderate; 4: severe; key to HMNH, heart myocardial necrosis and hemorrhage score: 0: no lesions; 1: <5% of myocardium affected; 2: 5-10% affected; 3: 10-25% affected; 4: >25% affected; key to LC, Liver capsule score: 0: normal; 1: segmental subcapsular necrosis +/- neutrophilic infiltrate; Total organ score: scale not given here
Procedure: as §3

[7] = i.p., CAG-LSL-Antares x Vgat-IRES-cre mice
[8] = 1 day, 4.2 µmol, 20 mg P-407, individual mice

CN(C)c1ccc(/C=C/C=C/C2=N[C@@H](C(=O)O)CS2)cc1 [AkaLumine]
duration of brain signal relative to Antares–CFz (AkaLuc): more sustained signal
toxicity of administered solution [1]: noticeable toxicity of the Akalumine solution to the skin and heart

Nc1cccc(-c2cn3c(=O)c(Cc4ccco4)nc-3c(Cc3ccccc3F)[nH]2)c1F [FFz, fluorofurimazine, reference compound]
liver signal, 6 versus FFz (Antares luciferase [2]): brighter in the liver
brain signal distribution (Antares luciferase [3]; Antares driven by Camk2a-cre): signal predominantly from the hindbrain
brain signal distribution (Antares luciferase [3]; [7]): low brightness from the forebrain, higher signal from the hindbrain, and highest signal from regions in the head outside the brain

O=c1c(Cc2ccco2)nc2c(Cc3ccccc3)[nH]c(-c3cccc(O)c3)cn1-2 [HFz, hydrofurimazine, reference compound]
brain signal brightness relative to Fz (Antares luciferase [3]; [7]): more than tenfold dimmer
brain signal distribution (Antares luciferase [3]; [7]): signal from the brain similar to Fz

Cc1ccc(Cc2nc3c(Cc4ccccc4)[nH]c(-c4cccc(F)c4F)cn-3c2=O)o1 [compound 10]
relative solubility in aqueous formulation with P-407 [4]: reduced solubility
solubilization of 4.2 µmol in P-407 formulation ([4]; 4.2 µmol): incomplete solubilization

Cc1ccc(Cc2nc3c(Cc4ccccc4F)[nH]c(-c4cccc(F)c4F)cn-3c2=O)o1 [compound 13]
HPMC, heart perivascular myxomatous change score [5]: 0
HT, heart telangiectasia score [5]: 0
KCHMV, Kupffer cell hyperplasia and microvesicular vacuolation score [5]: 0
toxicity after a single i.p. injection ([6]; 4.2 µmol with 20 mg P-407, one injection): severe kidney pathology and weight loss; also recorded: more toxic than 6
BMH, brain multifocal hemorrhage score [6, 8]: 0
HMNH, heart myocardial necrosis and hemorrhage score [6, 8]: 0
HN, hepatocellular necrosis score [6, 8]: 0
LC, Liver capsule score [6, 8]: 0
RTD, renal tubular dilation score [6, 8]: 2 (5%–25% of tubules affected) (2×) and 3 (25%–50% of tubules affected)
RTDR, renal tubular degeneration and regeneration score [6, 8]: 3 (25%–50% of tubules affected) (2×) and 2 (5%–25% of tubules affected)
SRPHMV, splenic red pulp histiocytosis with microvesicular vacuolation score [6, 8]: 0
Total organ score [6, 8]: 5 and 4 and 6
∆ weight [6, 8]: –7.9%; also recorded: –7.2%; also recorded: –6.7%
brain brightness relative to 6 (Antares luciferase [3]; 1.3 µmol i.p. with 10 mg P-407): brighter
brain brightness relative to 6 (factor) (Antares luciferase [3]; 1.3 µmol i.p. with 10 mg P-407, Vglut2-IRES-cre or CaMKIIα-cre): 1.5–2.0
